Laboratory results taken from US20230406855A1, “N-1 BRANCHED IMIDAZOQUINOLINES, CONJUGATES THEREOF, AND METHODS” (3M INNOVATIVE PROPERTIES COMPANY, priority 2020, published 2023).

Key:
[1] = system: Human peripheral blood mononuclear cells (PBMC); assay: Cytokine induction in human cells (PBMC), Ella Simple Plex ELISA; format: cell-based; conditions: 21-24 hours, lowest concentration giving cytokine at least 2x negative control, tested 0.01-30 micromolar
Experimental: Whole blood was obtained from healthy human donors and collected by venipuncture into vacutainer tubes or syringes containing EDTA. Human peripheral blood mononuclear cells (PBMC) were purified from the whole blood by density gradient centrifugation. Histopaque 1077 (15 mL, Sigma, St. Louis, MO) was transferred to 6×50 mL sterile polypropylene conical tubes. The Histopaque was overlayed with 15-25 mL of blood diluted 1:2 in Hank's Balanced Salts Solution (HBSS) (Gibco, Life Technologies, Grand Island, NY). The tubes were then centrifuged at 1370 rpm for 30 minutes at 20° C., with no brake (400×g, GH 3.8 A Rotor).
The interface (buffy coat) containing the PBMC was collected and placed in a new sterile 50 mL conical polypropylene centrifuge tube. The PBMC were mixed with an equal volume of HBSS (about 20 mL from the interface and about 20 mL of HBSS), and then centrifuged at 1090 rpm, 10 minutes, 20° C., with brake (270×g, GH 3.8 A Rotor). After completing centrifugation, the cells were resuspended in 2-3 mL ACK Red blood cell lysis buffer (ammonium chloride potassium solution, Gibco, Life Technologies) and incubated for 2-5 minutes at 20° C. Next, HBSS (40 mL) was added to the cells, and the sample was centrifuged at 270×g for 10 minutes at 20° C. The supernatant was decanted, and the cell pellet was resuspended in 5 mL AIM V Medium (Gibco, Life Technologies). Cell aggregates and debris were removed by filtering the cell solution through a BD Falcon 70 micron nylon cell strainer (BD Biosciences, San Jose, CA).
The number of viable cells was determined by counting with a Moxi Z instrument (ORFLO Technologies, Ketchum, ID) or by using a hemacytometer. For determining cell viability with a hemacytometer, the cells were diluted 1/10 in 0.4% trypan blue and HBSS (specifically, 50 microliter of trypan blue+40 microliter of HBSS+10 microliter of cell solution were added to a microfuge tube and mixed). Ten microliters of the diluted cells were then applied to the hemacytometer, and the number of viable PBMC were determined by microscopy.
The PBMC sample was then resuspended in 96-well plates at a concentration of 8×10^5 cells/well in 0.1 mL of AIM-V medium. Each compound was solubilized in dimethyl sulfoxide (DMSO) to create a 3 mM stock solution. The stock solution was then further diluted with AIM-V medium to prepare the serial dilutions. The diluted compound (100 microliters) was then transferred to the PBMCs to produce testing sets with final compound concentrations of 30, 10, 3.3, 1.1, 0.37, 0.12, 0.04, 0.01 micromolar. The plates also had both positive and negative controls. The negative control wells contained only AIM-V medium with no example compound. The positive control wells contained a control set of imiquimod serially diluted to concentrations of 30, 10, 3.3, 1.1, 0.37, 0.12, 0.04, 0.01 micromolar. The concentrations used in the control set were selected to match the concentrations used in the testing set. The plates were then cultured at 37° C./5% CO2 for 21-24 hours. Cell-free supernatants were harvested by centrifuging the 96-well plates at 2100 rpm, 23° C. for 10 minutes. Approximately 160 microliters of the supernatant was then stored in a NUNC 96-well plate, covered with the compression cap and stored at −80° C. until the cytokine analysis was done.
Cytokine levels (human IFN-alpha multisubtype, human IFN-gamma, and human TNF-alpha) were measured in picograms/mL by Ella Simple Plex ELISA (ProteinSimple, San Jose, CA) according to the manufacturer's instructions.
Specifically, the minimum effective concentration of each compound (micromolar) was determined as the lowest concentration of the compound that induced a measured cytokine response at a level ([…]) that was at least 2× greater than that observed with the negative control wells.

human TLR8 = biological target: T1, human TLR8 (Homo sapiens, UniProt Q9NR97); assay: TLR activation and specificity, HEK-BLUE-hTLR8 SEAP reporter cells; format: cell-based; conditions: 16-20 hours, lowest concentration giving SEAP response at least 2x vehicle control, tested 0.01-30 micromolar
T1 construct: host or cells: HEK293 (HEK-BLUE-hTLR8)
T1 sequence (Q9NR97 27-1041): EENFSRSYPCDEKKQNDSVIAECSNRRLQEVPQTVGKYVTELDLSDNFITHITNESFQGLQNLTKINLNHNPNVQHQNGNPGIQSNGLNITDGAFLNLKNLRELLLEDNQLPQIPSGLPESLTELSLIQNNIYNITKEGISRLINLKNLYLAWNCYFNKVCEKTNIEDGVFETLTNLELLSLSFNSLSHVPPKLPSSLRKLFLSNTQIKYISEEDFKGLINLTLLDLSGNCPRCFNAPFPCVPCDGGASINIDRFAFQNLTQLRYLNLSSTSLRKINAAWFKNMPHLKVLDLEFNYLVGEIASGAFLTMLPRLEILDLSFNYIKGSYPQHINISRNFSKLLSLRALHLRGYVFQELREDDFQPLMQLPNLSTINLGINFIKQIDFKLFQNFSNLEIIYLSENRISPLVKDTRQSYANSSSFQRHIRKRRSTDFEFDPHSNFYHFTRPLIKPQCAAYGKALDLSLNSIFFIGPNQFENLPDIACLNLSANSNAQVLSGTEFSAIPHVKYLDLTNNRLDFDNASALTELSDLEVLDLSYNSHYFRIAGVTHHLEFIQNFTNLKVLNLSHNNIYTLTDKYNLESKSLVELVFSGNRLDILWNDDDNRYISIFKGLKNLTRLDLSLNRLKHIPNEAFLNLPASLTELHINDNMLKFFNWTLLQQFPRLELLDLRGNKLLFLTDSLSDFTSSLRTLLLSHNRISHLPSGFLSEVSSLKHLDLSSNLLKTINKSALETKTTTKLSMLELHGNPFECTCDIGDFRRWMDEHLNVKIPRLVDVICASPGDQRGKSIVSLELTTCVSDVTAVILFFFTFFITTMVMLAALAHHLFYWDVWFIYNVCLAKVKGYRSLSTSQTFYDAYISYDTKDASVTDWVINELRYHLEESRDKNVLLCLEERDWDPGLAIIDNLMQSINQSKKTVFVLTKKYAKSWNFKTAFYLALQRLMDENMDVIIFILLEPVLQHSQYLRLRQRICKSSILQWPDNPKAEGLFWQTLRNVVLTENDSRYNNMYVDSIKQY
Experimental: (§1) HEK-BLUE-hTLR7 or hTLR8 reporter cells were obtained from InvivoGen, San Diego, CA. According to the manufacturer's description, these reporter cells were prepared by co-transfection of HEK293 cells with an inducible secreted embryonic alkaline phosphatase (SEAP) reporter gene and either the human TLR7 or TLR8 gene. The SEAP reporter gene was placed under the control of an IFN-β minimal promoter fused to five NF-κB and AP-1-binding sites. In the presence of a TLR ligand, activation of NF-κB and AP-1 occurs, resulting in a corresponding increase in SEAP levels. […]
(§2) For each compound, hTLR7, hTLR8, and their respective null control HEK cells were screened. […] Cell culture supernatants containing the SEAP reporter were collected after an incubation period of 16-20 hours in a cell culture incubator (37° C. and 5% CO2), and either analyzed immediately or stored at −80° C. SEAP levels were measured using the colorimetric enzyme assay (QUANTI-BLUE (InvivoGen) according to manufacturer's instructions.
(§3) Specifically, the minimum effective concentration of each compound (micromolar) was determined as the lowest concentration of the compound that produced a SEAP expression response at least 2× greater than that observed with the vehicle control wells.

human TLR7 = biological target: T2, human TLR7 (Homo sapiens, UniProt Q9NYK1); assay: TLR activation and specificity, HEK-BLUE-hTLR7 SEAP reporter cells; format: cell-based; conditions: 16-20 hours, lowest concentration giving SEAP response at least 2x vehicle control, tested 0.01-30 micromolar
T2 construct: host or cells: HEK293 (HEK-BLUE-hTLR7)
T2 sequence (Q9NYK1 27-1049): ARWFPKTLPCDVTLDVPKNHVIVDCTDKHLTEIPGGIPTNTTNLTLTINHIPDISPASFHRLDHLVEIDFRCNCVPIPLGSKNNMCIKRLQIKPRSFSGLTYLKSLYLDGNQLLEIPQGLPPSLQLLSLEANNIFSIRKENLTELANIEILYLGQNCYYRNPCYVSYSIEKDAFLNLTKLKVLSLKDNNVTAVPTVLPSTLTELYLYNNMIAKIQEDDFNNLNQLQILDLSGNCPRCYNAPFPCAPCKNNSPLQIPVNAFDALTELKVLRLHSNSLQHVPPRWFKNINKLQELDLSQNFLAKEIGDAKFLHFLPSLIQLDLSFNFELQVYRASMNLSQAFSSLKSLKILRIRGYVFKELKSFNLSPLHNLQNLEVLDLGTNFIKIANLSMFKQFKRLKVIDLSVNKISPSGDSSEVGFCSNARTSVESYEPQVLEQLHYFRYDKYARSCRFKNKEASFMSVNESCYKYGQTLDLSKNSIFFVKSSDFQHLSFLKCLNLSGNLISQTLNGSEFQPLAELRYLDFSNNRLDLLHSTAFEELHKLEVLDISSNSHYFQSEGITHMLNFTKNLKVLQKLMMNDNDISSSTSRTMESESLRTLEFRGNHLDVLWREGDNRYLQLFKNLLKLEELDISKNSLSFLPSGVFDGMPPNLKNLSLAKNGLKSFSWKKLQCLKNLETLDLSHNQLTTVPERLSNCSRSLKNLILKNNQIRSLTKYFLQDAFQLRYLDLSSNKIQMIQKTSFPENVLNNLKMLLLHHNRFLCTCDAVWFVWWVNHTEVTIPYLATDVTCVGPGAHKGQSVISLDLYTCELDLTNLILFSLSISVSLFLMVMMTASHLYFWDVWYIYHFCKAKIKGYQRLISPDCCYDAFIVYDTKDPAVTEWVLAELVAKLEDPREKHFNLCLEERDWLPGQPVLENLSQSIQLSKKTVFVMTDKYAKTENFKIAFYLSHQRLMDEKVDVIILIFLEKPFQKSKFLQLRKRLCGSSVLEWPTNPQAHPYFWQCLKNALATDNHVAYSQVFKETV
Experimental: as §1, §2, §3

[2] = system: LHRH receptor expressing tumor cells; conditions: free Dox relative to LHRH-conjugated Dox; cited from earlier work

SMILES	MEC to Induce Cytokine IFN-alpha [1] [µM]	MEC to Induce Cytokine IFN-gamma [1] [µM]	MEC to Induce Cytokine TNF-alpha [1] [µM]	MEC to Produce TLR Activation, TLR 8 (human TLR8) [µM]	MEC to Produce TLR Activation, TLR 7 (human TLR7) [µM]	amount of free Dox required for antitumor activity equal to the LHRH conjugate [2]
CCOC[C@H](Cc1ccc(OCc2cn(Cc3ccccc3)nn2)cc1)n1cnc2c(N)nc3ccccc3c21 [Example 2, (S)-1-(1-(4-((1-benzyl-1H-1,2,3-triazol-4-yl)methoxy)phenyl)-3-ethoxypropan-2-yl)-1H-imidazo[4,5-c]quinolin-4-amine]	≤0.01	≤0.01	≤0.01	3.3	≤0.01	–
C#CCOc1ccc(C[C@@H](COCC)n2cnc3c(N)nc4ccccc4c32)cc1 [Example 1, (S)-1-(1-ethoxy-3-(4-(prop-2-yn-1-yloxy)phenyl)propan-2-yl)-1H-imidazo[4,5-c]quinolin-4-amine]	≤0.01	≤0.01	≤0.01	10	≤0.01	–
C[C@@H]1C[C@H]2[C@@H]3CCC4=CC(=O)C=C[C@]4(C)C3=CC[C@]2(C)[C@H]1C(=O)CN1CCN(c2cc(N3CCCC3)nc(N3CCCC3)n2)CC1 [Dox]	–	–	–	–	–	approximately 200 times
